Results reported in patent US11395857B2, “Radiolabeled melanocortin 1 receptor-specific alpha-melanocyte-stimulating hormone analogues for imaging or therapy” (PROVINCIAL HEALTH SERVICES AUTHORITY, priority 2018, dated 2022).
Where two headings read alike, the source gives them in different places.

Legend:
[1] = In vivo stability in mouse urine at 1 h p.i. (radio-HPLC); set-up: species or system C57BL/6J mice
Description: All animal experiments were conducted in according to the guidelines established by Canadian Council on Animal Care and approved by Animal Ethics Committee of the University of British Columbia. Mice were housed under pathogen-free conditions and kept on twelve hours light and twelve hours dark cycle in the Animal Research Centre, BC Cancer Research Centre, Vancouver, Canada. C57BL/6J mice were anesthetized by inhalation with 2% isoflurane in 2.0 L/min of oxygen, and approximately 4-6 MBq of [^68Ga]Ga-CCZ01099 or [^68Ga]Ga-CCZ01048 was injected intravenously. The mice were allowed to recover and roam freely in their cages. At 1 h post-injection (p.i.), the mice were euthanized by CO2 inhalation and their urine was collected and analyzed on HPLC for metabolite using the conditions described above. In vivo urine stability of [^68Ga]Ga-CCZ01099 and [^68Ga]Ga-CCZ01048 were 34.0±10.4% and ≥98.0% (n≥3), respectively.
The in vivo stability tests in mouse urine were performed as described in Example 1. […] With systematic reduction in the number of N-methylations for the αMSH analogues, a decrease in in vivo stability was observed.

[2] = Biodistribution of 68Ga-labeled peptide in mice bearing B16F10 mouse melanoma; type: in vivo, C57BL/6J mice; conditions: iv, total radioactivity; for tissue uptake at 2 h: 2 h p.i. unblocked
Description: The B16-F10 melanoma cell line (Mus musculus) used in the tumor model was obtained commercially from ATTC (CRL-6475). Cells were cultured in Dulbecco's Modified Eagle's Medium (DMEM, StemCell Technologies) supplemented by 10% FBS, 100 U/mL penicillin and 100 μg/mL streptomycin at 37° C. in a humidified incubator containing 5% CO2. Cells grown to roughly 90% confluence were washed with sterile phosphate-buffered saline (lx PBS, pH 7.4), followed by trypsinization. For tumour implantation, C57BL/6J mice were anesthetized by inhalation with 2% isoflurane in 2.0 L/min of oxygen, 2×10^6 B16-F10 cells were inoculated subcutaneously on right dorsal flank. Mice were imaged or used in biodistribution studies once the tumour reached 6-8 mm in diameter.
Similar to PET/CT imaging, tumour-bearing mice were injected with 1-2 MBq of ^68Ga-labeled CCZ01099 via tail vein under anesthesia with or without co-injection of 0.5 mg of MC1R-specific inhibitor BMS 470539. At 1 or 2 h p.i., the mice were anesthetized again, and euthanized by CO2 inhalation. Blood was promptly withdrawn, and the organs of interest were harvested, rinsed with 1×PBS (pH 7.4), and blotted dry. Each organ was then weighed and the radioactivity of the collected tissue was measured using a Wallac WIZARD2 gamma counter (Perkin Elmer), normalized to the injected dose using a standard curve and expressed as the percentage of the injected dose per gram of tissue (% ID/g). Table 3 summarizes the biodistribution data of ^68Ga-labeled CCZ01099 at 1 and 2 h p.i., as well as 1 h p.i. with co-injection of 0.5 mg of MC1R-specific inhibitor BMS 470539. Minimal background tissue radioactivity accumulation was observed, except for kidney, which is expected as the radiolabeled peptides were cleared through the renal pathway.

## CCCC[C@H](NC(=O)CN1CCC(NC(=O)CN2CCN(CC(=O)O)CCN(CC(=O)O)CCN(CC(=O)O)CC2)CC1)C(=O)N[C@H]1CC(=O)NCCCC[C@@H](C(N)=O)N(C)C(=O)[C@H](Cc2c[nH]c3ccccc23)N(C)C(=O)[C@H](CCCNC(=N)N)N(C)C(=O)[C@@H](Cc2ccccc2)NC(=O)[C@H](Cc2c[nH]cn2)N(C)C1=O [^68Ga-labeled CCZ01099, metal not drawn]
[1]
  In vivo urine stability, intact tracer: 34.0±10.4%
[2]; B16F10 tumour, 1 h p.i. unblocked, C57BL/6J mice, B16F10 melanoma, read-out: Biodistribution, B16F10 tumour
  tissue uptake at 1 h: 6.12 ± 1.43 %ID/g
[2]; B16F10 tumour, C57BL/6J mice, B16F10 melanoma, read-out: Biodistribution, B16F10 tumour
  tissue uptake at 2 h: 5.22 ± 1.3 %ID/g
[2]; C57BL/6J, B16F10 tumour, with BMS 470539 (MC1R-specific inhibitor), 0.5 mg co-injected, 1 h p.i. blocked, co-injection of 0.5 mg BMS 470539, read-out: Biodistribution, B16F10 tumour
  tissue uptake at 1 h: 0.6 ± 0.15 %ID/g
[2]; C57BL/6J, adrenal glands, with BMS 470539 (MC1R-specific inhibitor), 0.5 mg co-injected, 1 h p.i. blocked, co-injection of 0.5 mg BMS 470539, read-out: Biodistribution, Adrenal glands
  tissue uptake at 1 h: 0.45 ± 0.29 %ID/g
[2]; C57BL/6J, bone, with BMS 470539 (MC1R-specific inhibitor), 0.5 mg co-injected, 1 h p.i. blocked, co-injection of 0.5 mg BMS 470539, read-out: Biodistribution, Bone
  tissue uptake at 1 h: 0.17 ± 0.1 %ID/g
[2]; C57BL/6J, brain, with BMS 470539 (MC1R-specific inhibitor), 0.5 mg co-injected, 1 h p.i. blocked, co-injection of 0.5 mg BMS 470539, read-out: Biodistribution, Brain
  tissue uptake at 1 h: 0.03 ± 0.02 %ID/g
[2]; C57BL/6J, fat, with BMS 470539 (MC1R-specific inhibitor), 0.5 mg co-injected, 1 h p.i. blocked, co-injection of 0.5 mg BMS 470539, read-out: Biodistribution, Fat
  tissue uptake at 1 h: 0.04 ± 0.02 %ID/g
[2]; C57BL/6J, heart, with BMS 470539 (MC1R-specific inhibitor), 0.5 mg co-injected, 1 h p.i. blocked, co-injection of 0.5 mg BMS 470539, read-out: Biodistribution, Heart
  tissue uptake at 1 h: 0.13 ± 0.02 %ID/g
[2]; C57BL/6J, intestine, with BMS 470539 (MC1R-specific inhibitor), 0.5 mg co-injected, 1 h p.i. blocked, co-injection of 0.5 mg BMS 470539, read-out: Biodistribution, Intestine
  tissue uptake at 1 h: 0.17 ± 0.05 %ID/g
[2]; C57BL/6J, kidneys, with BMS 470539 (MC1R-specific inhibitor), 0.5 mg co-injected, 1 h p.i. blocked, co-injection of 0.5 mg BMS 470539, read-out: Biodistribution, Kidneys
  tissue uptake at 1 h: 2.62 ± 0.91 %ID/g
[2]; C57BL/6J, liver, with BMS 470539 (MC1R-specific inhibitor), 0.5 mg co-injected, 1 h p.i. blocked, co-injection of 0.5 mg BMS 470539, read-out: Biodistribution, Liver
  tissue uptake at 1 h: 0.38 ± 0.11 %ID/g
[2]; C57BL/6J, lungs, with BMS 470539 (MC1R-specific inhibitor), 0.5 mg co-injected, 1 h p.i. blocked, co-injection of 0.5 mg BMS 470539, read-out: Biodistribution, Lungs
  tissue uptake at 1 h: 0.34 ± 0.13 %ID/g
[2]; C57BL/6J, muscle, with BMS 470539 (MC1R-specific inhibitor), 0.5 mg co-injected, 1 h p.i. blocked, co-injection of 0.5 mg BMS 470539, read-out: Biodistribution, Muscle
  tissue uptake at 1 h: 0.08 ± 0.03 %ID/g
[2]; C57BL/6J, pancreas, with BMS 470539 (MC1R-specific inhibitor), 0.5 mg co-injected, 1 h p.i. blocked, co-injection of 0.5 mg BMS 470539, read-out: Biodistribution, Pancreas
  tissue uptake at 1 h: 0.08 ± 0.01 %ID/g
[2]; C57BL/6J, seminal glands, with BMS 470539 (MC1R-specific inhibitor), 0.5 mg co-injected, 1 h p.i. blocked, co-injection of 0.5 mg BMS 470539, read-out: Biodistribution, Seminal glands
  tissue uptake at 1 h: 0.07 ± 0.03 %ID/g
[2]; C57BL/6J, spleen, with BMS 470539 (MC1R-specific inhibitor), 0.5 mg co-injected, 1 h p.i. blocked, co-injection of 0.5 mg BMS 470539, read-out: Biodistribution, Spleen
  tissue uptake at 1 h: 0.52 ± 0.28 %ID/g
[2]; C57BL/6J, stomach, with BMS 470539 (MC1R-specific inhibitor), 0.5 mg co-injected, 1 h p.i. blocked, co-injection of 0.5 mg BMS 470539, read-out: Biodistribution, Stomach
  tissue uptake at 1 h: 0.19 ± 0.12 %ID/g
[2]; C57BL/6J, testes, with BMS 470539 (MC1R-specific inhibitor), 0.5 mg co-injected, 1 h p.i. blocked, co-injection of 0.5 mg BMS 470539, read-out: Biodistribution, Testes
  tissue uptake at 1 h: 0.1 ± 0.02 %ID/g
[2]; C57BL/6J, thyroid, with BMS 470539 (MC1R-specific inhibitor), 0.5 mg co-injected, 1 h p.i. blocked, co-injection of 0.5 mg BMS 470539, read-out: Biodistribution, Thyroid
  tissue uptake at 1 h: 0.13 ± 0.05 %ID/g
[2]; C57BL/6J, whole blood, with BMS 470539 (MC1R-specific inhibitor), 0.5 mg co-injected, 1 h p.i. blocked, co-injection of 0.5 mg BMS 470539, read-out: Biodistribution, Blood
  tissue uptake at 1 h: 0.27 ± 0.04 %ID/g
[2]; adrenal glands, 1 h p.i. unblocked, C57BL/6J mice, B16F10 melanoma, read-out: Biodistribution, Adrenal glands
  tissue uptake at 1 h: 0.71 ± 0.67 %ID/g
[2]; adrenal glands, C57BL/6J mice, B16F10 melanoma, read-out: Biodistribution, Adrenal glands
  tissue uptake at 2 h: 0.33 ± 0.19 %ID/g
[2]; bone, 1 h p.i. unblocked, C57BL/6J mice, B16F10 melanoma, read-out: Biodistribution, Bone
  tissue uptake at 1 h: 0.32 ± 0.16 %ID/g
[2]; bone, C57BL/6J mice, B16F10 melanoma, read-out: Biodistribution, Bone
  tissue uptake at 2 h: 0.1 ± 0.03 %ID/g
[2]; brain, 1 h p.i. unblocked, C57BL/6J mice, B16F10 melanoma, read-out: Biodistribution, Brain
  tissue uptake at 1 h: 0.05 ± 0.04 %ID/g
[2]; brain, C57BL/6J mice, B16F10 melanoma, read-out: Biodistribution, Brain
  tissue uptake at 2 h: 0.01 %ID/g
[2]; fat, 1 h p.i. unblocked, C57BL/6J mice, B16F10 melanoma, read-out: Biodistribution, Fat
  tissue uptake at 1 h: 0.09 ± 0.04 %ID/g
[2]; fat, C57BL/6J mice, B16F10 melanoma, read-out: Biodistribution, Fat
  tissue uptake at 2 h: 0.02 ± 0.01 %ID/g
[2]; heart, 1 h p.i. unblocked, C57BL/6J mice, B16F10 melanoma, read-out: Biodistribution, Heart
  tissue uptake at 1 h: 0.26 ± 0.07 %ID/g
[2]; heart, C57BL/6J mice, B16F10 melanoma, read-out: Biodistribution, Heart
  tissue uptake at 2 h: 0.08 ± 0.01 %ID/g
[2]; intestine, 1 h p.i. unblocked, C57BL/6J mice, B16F10 melanoma, read-out: Biodistribution, Intestine
  tissue uptake at 1 h: 0.37 ± 0.11 %ID/g
[2]; intestine, C57BL/6J mice, B16F10 melanoma, read-out: Biodistribution, Intestine
  tissue uptake at 2 h: 0.53 ± 0.38 %ID/g
[2]; kidneys, 1 h p.i. unblocked, C57BL/6J mice, B16F10 melanoma, read-out: Biodistribution, Kidneys
  tissue uptake at 1 h: 5.98 ± 1.24 %ID/g
[2]; kidneys, C57BL/6J mice, B16F10 melanoma, read-out: Biodistribution, Kidneys
  tissue uptake at 2 h: 4.42 ± 0.55 %ID/g
[2]; liver, 1 h p.i. unblocked, C57BL/6J mice, B16F10 melanoma, read-out: Biodistribution, Liver
  tissue uptake at 1 h: 0.54 ± 0.07 %ID/g
[2]; liver, C57BL/6J mice, B16F10 melanoma, read-out: Biodistribution, Liver
  tissue uptake at 2 h: 0.44 ± 0.08 %ID/g
[2]; lungs, 1 h p.i. unblocked, C57BL/6J mice, B16F10 melanoma, read-out: Biodistribution, Lungs
  tissue uptake at 1 h: 0.74 ± 0.14 %ID/g
[2]; lungs, C57BL/6J mice, B16F10 melanoma, read-out: Biodistribution, Lungs
  tissue uptake at 2 h: 0.31 ± 0.05 %ID/g
[2]; muscle, 1 h p.i. unblocked, C57BL/6J mice, B16F10 melanoma, read-out: Biodistribution, Muscle
  tissue uptake at 1 h: 0.17 ± 0.05 %ID/g
[2]; muscle, C57BL/6J mice, B16F10 melanoma, read-out: Biodistribution, Muscle
  tissue uptake at 2 h: 0.04 %ID/g
[2]; pancreas, 1 h p.i. unblocked, C57BL/6J mice, B16F10 melanoma, read-out: Biodistribution, Pancreas
  tissue uptake at 1 h: 0.17 ± 0.04 %ID/g
[2]; pancreas, C57BL/6J mice, B16F10 melanoma, read-out: Biodistribution, Pancreas
  tissue uptake at 2 h: 0.07 ± 0.01 %ID/g
[2]; seminal glands, 1 h p.i. unblocked, C57BL/6J mice, B16F10 melanoma, read-out: Biodistribution, Seminal glands
  tissue uptake at 1 h: 0.11 ± 0.05 %ID/g
[2]; seminal glands, C57BL/6J mice, B16F10 melanoma, read-out: Biodistribution, Seminal glands
  tissue uptake at 2 h: 0.04 ± 0.01 %ID/g
[2]; spleen, 1 h p.i. unblocked, C57BL/6J mice, B16F10 melanoma, read-out: Biodistribution, Spleen
  tissue uptake at 1 h: 0.35 ± 0.07 %ID/g
[2]; spleen, C57BL/6J mice, B16F10 melanoma, read-out: Biodistribution, Spleen
  tissue uptake at 2 h: 0.19 ± 0.03 %ID/g
[2]; stomach, 1 h p.i. unblocked, C57BL/6J mice, B16F10 melanoma, read-out: Biodistribution, Stomach
  tissue uptake at 1 h: 0.26 ± 0.15 %ID/g
[2]; stomach, C57BL/6J mice, B16F10 melanoma, read-out: Biodistribution, Stomach
  tissue uptake at 2 h: 0.2 ± 0.16 %ID/g
[2]; testes, 1 h p.i. unblocked, C57BL/6J mice, B16F10 melanoma, read-out: Biodistribution, Testes
  tissue uptake at 1 h: 0.21 ± 0.06 %ID/g
[2]; testes, C57BL/6J mice, B16F10 melanoma, read-out: Biodistribution, Testes
  tissue uptake at 2 h: 0.07 ± 0.01 %ID/g
[2]; thyroid, 1 h p.i. unblocked, C57BL/6J mice, B16F10 melanoma, read-out: Biodistribution, Thyroid
  tissue uptake at 1 h: 0.31 ± 0.08 %ID/g
[2]; thyroid, C57BL/6J mice, B16F10 melanoma, read-out: Biodistribution, Thyroid
  tissue uptake at 2 h: 0.16 ± 0.03 %ID/g
[2]; whole blood, 1 h p.i. unblocked, C57BL/6J mice, B16F10 melanoma, read-out: Biodistribution, Blood
  tissue uptake at 1 h: 0.7 ± 0.15 %ID/g
[2]; whole blood, C57BL/6J mice, B16F10 melanoma, read-out: Biodistribution, Blood
  tissue uptake at 2 h: 0.19 ± 0.01 %ID/g
